Our source for the melting point and IC50 values is patent publication US20040110718A1, “Anti-HCV nucleoside derivatives” (priority 2000, published 2004).

Structures are written as SMILES. pIC50: −log10 of the molar value.

Tested on in the first data set: not given
Experiment: not given
Conditions: not given
`Nc1ncnc2c1nc(NCCc1ccc(S(N)(=O)=O)cc1)n2[C@@H]1O[C@H](CO)[C@@H](O)[C@H]1O`: the melting point is 157 to 163 °C (dec.).

In the case of `Nc1ncnc2c1nc(N1CCc3ccccc3C1)n2[C@@H]1O[C@H](CO)[C@@H](O)[C@H]1O`, the melting point was 145 to 150 °C (dec.).

Consider `C=CCNc1nc2c(N)ncnc2n1[C@@H]1O[C@H](CO)[C@@H](O)[C@H]1O`, for which the melting point was 234 to 237 °C (dec.).

Consider `Nc1ncnc2c1nc(NCc1ccccc1)n2[C@H]1C[C@H](O)[C@@H](CO)O1`, for which the melting point lay within 132 to 134 °C.

Regarding `Nc1ncnc2c1nc(NCCc1ccc(Cl)cc1)n2[C@@H]1O[C@H](CO)[C@@H](O)[C@H]1O`, the melting point was 155 to 158 °C (dec.).

For `Nc1ncnc2c1nc(NCCCc1ccccc1)n2[C@H]1C[C@H](O)[C@@H](CO)O1`, the melting point was in the range of 198 to 201 °C.

In turn, `Nc1ncnc2c1nc(NCCN1CCOCC1)n2[C@@H]1O[C@H](CO)[C@@H](O)[C@H]1O` gave a melting point of 210 to 215 °C.

For the molecule `Nc1ncnc2c1nc(NCCc1ccc(Cl)cc1Cl)n2[C@@H]1O[C@H](CO)[C@@H](O)[C@H]1O`, the melting point is 164 to 168 °C (dec.).

For `Cn1cccc1CCNc1nc2c(N)ncnc2n1[C@@H]1O[C@H](CO)[C@@H](O)[C@H]1O`, the melting point was 225 to 228 °C.

Consider `Cc1ccc(CCNc2nc3c(N)ncnc3n2[C@@H]2O[C@H](CO)[C@@H](O)[C@H]2O)cc1`, for which the melting point is 117 to 124 °C (dec.).

`Nc1ncnc2c1nc(N1CCCCC1)n2[C@@H]1O[C@H](CO)[C@@H](O)[C@H]1O`: the melting point is 207 to 209 °C (dec.).

The molecule `Nc1ncnc2c1nc(NCCCCc1ccccc1)n2[C@H]1C[C@H](O)[C@@H](CO)O1` showed a melting point of 168 to 171 °C.

As to `O=c1ccn([C@@H]2O[C@H](CO)[C@@H](O)[C@H]2Cl)c(=O)[nH]1`, the melting point is 206 to 207 °C.

Turning to `Nc1nc(-c2ccccc2)c2ncn([C@@H]3O[C@H](CO)[C@@H](O)[C@H]3O)c2n1`, the melting point is 187 to 190 °C.

With `Nc1ncnc2c1nc(NCc1cccnc1)n2[C@@H]1O[C@H](CO)[C@@H](O)[C@H]1O`, the melting point was 235 to 237 °C (dec.).

With `Nc1ncnc2c1nc(N1CCN(c3ccccc3)CC1)n2[C@@H]1O[C@H](CO)[C@@H](O)[C@H]1O`, the melting point is 220 to 223 °C (dec.).

Turning to `Nc1ncnc2c1nc(NCCC1CCCCC1)n2[C@@H]1O[C@H](CO)[C@@H](O)[C@H]1O`, the melting point was 203 to 205 °C.

`OC[C@H]1O[C@@H](n2cnc3c(-n4cccc4)ncnc32)[C@@H](O)[C@@H]1O` displayed a melting point of 212 to 213 °C.

With `Nc1ncnc2c1nc(NCCc1ccccc1)n2[C@H]1C[C@H](O)[C@@H](CO)O1`, the melting point fell in the range of 192 to 195 °C.

In turn, `Nc1ncnc2c1nc(NCCCCc1ccccc1)n2[C@@H]1O[C@H](CO)[C@@H](O)[C@H]1O` yielded a melting point of 190 °C.

Consider `Nc1ncnc2c1nc(NCc1cccc3ccccc13)n2[C@@H]1O[C@H](CO)[C@@H](O)[C@H]1O`, for which the melting point was in the range of 140 to 150 °C.

For `Nc1ncnc2c1nc(NCCCCCCc1ccccc1)n2[C@H]1C[C@H](O)[C@@H](CO)O1`, the melting point was in the range of 159 to 161 °C.

Regarding `CN(CCc1ccccc1)c1nc2c(N)ncnc2n1[C@@H]1O[C@H](CO)[C@@H](O)[C@H]1O`, the melting point lay within 118 to 120 °C.

In turn, `OC[C@@H]1O[C@H](n2cnc3c(-n4cccc4)ncnc32)[C@@H](O)[C@H]1O` registered a melting point of 114 to 115 °C.

Regarding `O=c1ccn([C@@H]2O[C@H](CO)[C@@H](O)[C@H]2Br)c(=O)[nH]1`, the melting point fell in the range of 194 to 195 °C.

For the molecule `Nc1ncnc2c1nc(NCCc1ccc(O)cc1)n2[C@@H]1O[C@H](CO)[C@@H](O)[C@H]1O`, the melting point was 262 to 265 °C (dec.).

In the case of `OC[C@H]1O[C@@H](n2cnc3c(N4CCCC4)nc(Cl)nc32)[C@H](O)[C@@H]1O`, the melting point was found to be 229 °C.

In turn, `Nc1ncnc2c1nc(N1CCOCC1)n2[C@@H]1O[C@H](CO)[C@@H](O)[C@H]1O` showed a melting point of 210 to 213 °C.

`CCc1cn([C@@H]2O[C@H](CO)[C@@H](O)[C@H]2O)c(=O)[nH]c1=O` yielded a melting point of 180 to 181 °C.

`Nc1ncnc2c1nc(NCCCc1ccccc1)n2[C@@H]1O[C@H](CO)[C@@H](O)[C@H]1O` yielded a melting point of 180 to 183 °C.

`OC[C@@H]1C[C@@H](O)[C@H](n2cnc3c(-n4cccc4)ncnc32)O1` came in with a melting point of 175 to 176 °C.

Turning to `Nc1ncnc2c1nc(NCCc1c[nH]cn1)n2[C@@H]1O[C@H](CO)[C@@H](O)[C@H]1O`, the melting point is 148 to 156 °C (dec.).

As for `Nc1ncnc2c1nc(NCCCCCCc1ccccc1)n2[C@@H]1O[C@H](CO)[C@@H](O)[C@H]1O`, the melting point was 165 to 167 °C.

Another data set relates to HCV replicon RNA replication. The experiment in a line: HCV replicon assay (quantification of replicon RNA, Northern blot / Taqman kinetic PCR). The note with it: Hepatitis C virus, Huh-7, 72 h. Format: cell-based. As for the experimental part: Assay Method: The activity of the compounds was assayed using an adaptation of the method reported by Lohmann et al [V. Lohmann et al., Science, 1999, 285, 110-113].
The HCV replicon-containing cell line is used for the identification of small molecules that are able to inhibit the replication of the replicon RNA. Since the replicon RNA replication mimics the replication of the HCV RNA in infected hepatocytes, it is believed that those small molecules that have the above property are interesting for further development as anti-HCV drugs.
The inhibition of the HCV replicon RNA replication will lead to a decrease of the replicon RNA in the cell, which can be measured using a method that specifically quantifies this RNA.
Northern blot: One method for quantification of this RNA uses the standard Northern blot known to any person skilled in the art.
Kinetic PCR: A second assay for the quantification of replicon RNA is based on the amplification of the replicon RNA that remains in the cell, after incubation of the cells with a proper concentration of the small molecules. This method involves the reverse transcription of the replicon RNA to the corresponding complementary DNA (cDNA), followed by amplification of the cDNA using the Taqman Kinetic PCR technology (PE Biosystems). This consists of hybridisation of the cDNA with a complementary reporter oligonucleotide (probe), containing a combined fluorescent dye and a quencher dye. Amplification of the DNA sequence containing the hybridised reporter probe, using flanking oligonucleotide primers will lead to the separation of the fluorescent dye from the quencher dye. This will result in an increase of the fluorescence during each amplification cycle.
The neomycin phosphotransferase gene sequence that is present in the replicon RNA was chosen for amplification using specifically designed oligonucleotide primers. To control for (a) cell number that can vary depending on the toxicity or cytostatic effect of the small molecules, and (b) for errors during total RNA extraction, amplification of the host β-actin gene is used for normalisation.
The accumulation of the PCR products during the reaction is monitored directly by measuring the increase in fluorescence of the reporter dye. The amount of HCV replicon RNA (and β-actin RNA) originally present in the total RNA extracted from the cells is then expressed as a threshold cycle, e.g. the cycle at which there is a statistically significant increase in the fluorescence above the background.
For this procedure, HCV replicon-containing human hepatoma Huh7 cells (9-13) in growth medium (DMEM) containing 5% FCS are plated in a 96-well plate at 5×10^3 cells per well, and the plate incubated overnight. 24 hours later, different dilutions in 0.1 ml growth medium of chemical compounds were added to the wells, and the plate further incubated at 37° C. for three days. Total RNA coming from each well is extracted using the RNeasy™ procedure (Qiagen manufacturer instructions), and the total RNA is eluted in a final volume of 0.13 ml. Next, a 2 μl sample of the total RNA is used for convertion into cDNA using a reverse transcription (RT) step. A RT mastermix containing 1 μl 10× Taqman RT buffer, 2.2 μl 25 mM MgCl2 (5.5 mM final conc.), 2 μl dNTP mix (500 μM each), 0.5 μl random hexamer primers (2.5 μM), 0.2 μl RNase inhibitor (0.4 u/μl ), 0.25 μl RT (1.25 u/μl ), 1.85 μl H2O, was distributed in a 96-well plate and 2 μl total RNA was added to each well.
The RT reaction is performed by incubation of the plate 10 min at 25° C., 30 min at 48° C., 5 min at 95° C. and cooling to 4° C. The cDNA samples are then stored at −20° C. or directly used for the PCR reaction. […]
On to `Nc1ncnc2c1nc(Br)n2[C@@H]1O[C@H](CO)[C@@H](O)[C@H]1O` [Example 10, 8-Bromoadenosine], for which the negative logarithm of the IC50 (pIC50) was 5.44.

In turn, `C=CCNc1ncnc2c1ncn2[C@@H]1O[C@H](CO)[C@@H](O)[C@H]1O` [Example 80, 6-(2-Propenyl)amino-9-(β-D-ribofuranosyl)purine] showed a pIC50 of 5.24.

As for `OC[C@H]1O[C@@H](n2cnc3c(Cl)ncnc32)[C@H](O)[C@@H]1O` [Example 19, 6-Chloro-9-(β-D-ribofuranosyl)purine], the pIC50 is 4.85.

Still in this data set, the particulars now being: Hepatitis C virus, Huh-7, 72 h; HCV replicon-containing human hepatoma Huh7 cells (9-13), three days incubation; concentration reducing replicon RNA levels by 50%; read-out: IC50.
`Nc1ccn([C@@H]2C[C@H](CO)[C@@H](O)C2(F)F)c(=O)n1` [Example 245, 1-[1(R)-2,2-difluoro-3(R)-hydroxy-4(R)-(hydroxymethyl)cyclopentyl]-4-amino-1H-pyrimindin-2-one]: the pIC50 is 5.70.

Turning to `CSc1ncnc2c1ncn2[C@@H]1O[C@H](CO)[C@@H](O)[C@H]1O` [Example 16, 6-Methylthio-9-(β-D-ribofuranosyl)purine], the negative-log IC50 (pIC50) is 7.10.

For the molecule `CN(C)c1ncnc2c1ncn2[C@@H]1O[C@H](CO)[C@@H](O)[C@H]1O` [Example 1, 6-Dimethylamino-9-(β-D-ribofuranosyl)purine], the negative logarithm of the IC50 (pIC50) was 6.22.

With `Nc1ccn([C@H]2O[C@@H](CO)[C@H](O)[C@@H]2O)c(=O)n1` [Example 244, L-cytidine], the negative-log IC50 (pIC50) is 5.00.

As for `OC[C@H]1O[C@@H](n2cnc3c(N4CCCC4)ncnc32)[C@H](O)[C@@H]1O` [Example 77, 6-(1-Pyrrolidinyl)-9-(β-D-ribofuranosyl)purine], the pIC50 is 5.59.

`O=c1[nH]/c(=N/O)ccn1[C@@H]1O[C@H](CO)[C@@H](O)[C@H]1O` [Example 239, 4-oximino-1-(β-D-ribofuranosyl)pyrimidin-2(1H)-one]: the negative-log IC50 (pIC50) is 5.89.

Turning to `Nc1c2ncn([C@@H]3O[C@H](CO)[C@@H](O)[C@H]3O)c2nc[n+]1[O-]` [Example 7, Adenosine-1-oxide], the pIC50 was 5.70.

For the molecule `OC[C@H]1O[C@@H](n2cnc3c(-n4ccnc4)ncnc32)[C@H](O)[C@@H]1O` [Example 111, 6-(1-Imidazolyl)-9-(β-D-ribofuranosyl)purine], the negative logarithm of the IC50 (pIC50) was 5.21.

For `OC[C@H]1O[C@@H](n2cnc3c(-n4cccc4)ncnc32)[C@H](O)[C@@H]1O` [Example 105, 6-(1-Pyrrolyl)-9-(β-D-ribofuranosyl)purine], the pIC50 was 7.00.

For `N=c1c2ncn([C@@H]3O[C@H](CO)[C@@H](O)[C@H]3O)c2ncn1Cc1ccccc1` [Example 93, 1-Benzyl-6-imino-9-(β-D-ribofuranosyl)purine], the negative logarithm of the IC50 (pIC50) was 5.35.

For the molecule `Nc1ccn([C@@H]2O[C@H](CO)[C@@H](O)C2(F)F)c(=O)n1` [Example 243, 1-(2-deoxy-2,2-difluoro-β-D-erythropentofuranosyl)cytosine], the pIC50 was 7.15.

In general, melting point refers to the temperature, or range, at which the solid turns liquid. As usually defined, the pIC50 is the IC50 on a negative log10 scale, so that one unit is a factor of ten.
